Assays:
[1] = test system: DGAT1 KO CD4+CD25− cells; experiment: In vitro T regulatory cell induction, DGAT1 KO T cells; format: cell-based, mouse; conditions: retinol 10 nM; anti-CD3/TGFβ, DGAT1 KO MLN cells, delipidated serum, 3 days
Method: (§1) FIG. 7. DGAT1 limits retinoic acid-dependent Treg induction. WT or DGAT1 KO CD4+CD25− cells were incubated with T cell-depleted DGAT1 KO MLN cells in delipidated serum in the absence or presence of: soluble anti-CD3; TGFβ; retinol (ROL; 10 nM); A922500 (100 nM); or AM580 (10 nM) where indicated. After 3 days, TCRβ+ lymphocytes in the live gate were analyzed for expression of CD4 and Foxp3 by flow cytometry. (a) Representative FACS plots show the frequency of WT (top panels) or DGAT1 KO (bottom panels) CD4+Foxp3+ Tregs within the gate. (b) FACS data are summarized in bar graph form. Bars depict the mean+SEM of triplicate wells. Two independent experiments were performed.
(§2) This acyl-CoA:retinol acyltransferase (ARAT) function enables DGAT1 to convert retinol (vitamin A) to its storage retinyl ester form. RA, the active metabolite of vitamin A, supports Treg induction; however, T lymphocytes cannot synthesize RA autonomously. We hypothesized that T cell-expressed DGAT1 functions as an ARAT, diverting retinol to its storage ester form. This would lead to a reduction in levels of RA locally. Conversely, DGAT1 deficiency would prevent this sequestration of retinol, leading to elevated RA and Treg induction. […]

[2] = test system: WT CD4+CD25− cells; experiment: In vitro T regulatory cell induction, WT T cells; format: cell-based, mouse
Method: as §1, §2

[3] = daily 10 mg/kg; models of obesity; cited from earlier work
[4] = test system: C57BL/6 mice with MOG35-55-induced EAE; experiment: EAE induced by active immunization with MOG35-55/CFA, clinical scoring and CNS histology; format: in vivo, mouse
Method: In addition, administration of a selective DGAT1 inhibitor attenuated MOG35-55-induced EAE. C57BL/6 mice (8 weeks old) were induced to develop EAE by active immunization with MOG35-55/CFA. Twelve days after disease induction (indicated by the arrow), mice were administered vehicle (10% Captisol) or 10 mg/kg DGAT1 inhibitor A922500 once daily via s.c. injection and followed for clinical disease (n=10/group). Clinical data are presented as the mean score ±SEM. The scoring system is as follows: 0, normal or healthy; 1, limp tail; 2, hindlimb weakness; 3, hindlimb paralysis; 4, hindlimb and forelimb paralysis. *P<0.05 (days 14-30) by Mann-Whitney U test.
EAE models. For EAE induction by active immunization, mice (8-10 weeks old) were immunized via subcutaneous (s.c.) injection with 100 μg MOG35-55 emulsified in CFA as described. Mice also received 250 ng pertussis toxin (List Biological Labs) via tail vein injection at the time of MOG35-55/CFA immunization and again 2 days later. Clinical disease was scored as follows: 0=normal or healthy; 1=flaccid tail; 2=hindlimb weakness; 3=hindlimb paralysis; 4=hindlimb and forelimb paralysis; 5=moribund or dead. Where indicated, A922500 was formulated in 10% Captisol vehicle for in vivo dosing via s.c. injection (100 μl volume). Individuals who conducted the clinical scoring were blinded to the treatment that the mice received.
Histology. Brain and spinal cord tissues were fixed in 10% buffered formalin. Paraffin-embedded tissues were then stained with H&E, and CNS inflammatory foci (>10 mononuclear cells/focus) in leptomeninges and parenchyma were counted in each mouse sample in a blinded fashion.
Statistics. The Mann-Whitney U test was applied to analyze nonparametric clinical EAE data, and the Student's t test was used to analyze all parametric data. The Fisher's exact test was used to compare disease incidence.

[5] = test system: C57BL/6 mice; experiment: Tolerability observations in treated mice (behavior, leukocytes, organ wet weights and gross morphology); format: in vivo, mouse; conditions: mice induced to develop EAE, treated from day 12 p.i.
Description: To address this possibility, we first determined whether pharmacological inhibition of DGAT1 could modulate clinical EAE. […] Suppression of clinical disease was evident as early as 2 days after dosing began and persisted until termination of the experiment at day 30 p.i. (FIG. 3a). Overall, the compound delayed onset of clinical signs by an average of 6 days and reduced disease incidence at day 30 p.i. by 30%. […] Thus, administration of a selective DGAT1 inhibitor attenuates EAE.

[6] = 30 days after EAE induction, mean (SEM), 10 mg/kg s.c. once daily from day 12

CC1=C(/C=C/C(C)=C/C=C/C(C)=C/CO)C(C)(C)CCC1 [retinol, All-trans-retinol]
Foxp3+ Treg induction [1]: significantly enhanced

CC1(C)CCC(C)(C)c2cc(C(=O)Nc3ccc(C(=O)O)cc3)ccc21 [AM580]
Treg induction by RAR agonist ([2]; AM580 10 nM, WT and DGAT1 KO cells, DGAT1 deficiency had no significant effect): enhanced Treg induction

O=C(Nc1ccccc1)Nc1ccc(-c2ccc(C(=O)[C@@H]3CCC[C@H]3C(=O)O)cc2)cc1 [A922500]
Difference between DGAT1−/− and WT Treg induction responses to retinol ([2]; A922500 100 nM with retinol 10 nM, anti-CD3/TGFβ, 3 days): abrogated the difference between DGAT1−/− and WT cell responses | Serum TG levels [3]: significantly reduces serum TG levels | Time after start of dosing at which suppression of clinical disease was evident ([4]; 10 mg/kg daily from day 12 p.i., persisted until day 30 p.i.): 2 days | Mean maximal score (SEM) ([4]; 10 mg/kg s.c. once daily from day 12 p.i., clinical score 0-5): 1.4 (0.4)^ns | Mean day of onset (SEM) ([4]; 10 mg/kg s.c. once daily from day 12 p.i., only animals that developed EAE): 20.1 (1.9)* day | No. of CNS inflammatory foci, Meninges [4, 6]: 19.8 (8.8) | No. of CNS inflammatory foci, Parenchyma [4, 6]: 29.9 (12.4) | Delay of onset of clinical signs ([4]; average, versus vehicle, 10 mg/kg daily from day 12 p.i.): 6 days | Effect on clinical EAE ([4]; daily 10 mg/kg, P<0.05 days 14-30 p.i. by Mann-Whitney U test): attenuated EAE | Reduction of disease incidence at day 30 p.i. ([4]; versus vehicle, 10 mg/kg daily from day 12 p.i.): 30% | Leukocyte numbers or composition within peripheral lymphoid tissues [5]: did not induce overt behavioral changes or significantly alter leukocyte numbers or composition within peripheral lymphoid tissues | Organ toxicity (wet weights and gross morphology of several organs incl. spleen and thymus) [5]: did not cause detectable organ toxicity | Overt behavioral changes [5]: did not induce overt behavioral changes

Source: patent publication US10226470B2, “DGAT1 inhibition for treatment of demyelinating inflammatory disease” (The Board of Trustees of the Leland Stanford Junior …, priority 2014, dated 2019)
